Assay [1] deals with T. cruzi DHFR (tcDHFR) (Trypanosoma cruzi, UniProt Q27793). Briefly: biochemical. The settings on record: for Average DHFR selectivity (h/tc): hDHFR IC50/tcDHFR IC50.
The target in assay [2] is T1, hDHFR (Homo sapiens, UniProt P00374).
T1 sequence (P00374 1-187): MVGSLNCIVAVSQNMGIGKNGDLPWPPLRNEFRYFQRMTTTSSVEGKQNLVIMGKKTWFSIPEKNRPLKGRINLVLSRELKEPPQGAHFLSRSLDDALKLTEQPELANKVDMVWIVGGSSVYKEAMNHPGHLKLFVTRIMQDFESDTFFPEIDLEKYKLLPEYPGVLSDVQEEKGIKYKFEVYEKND
Format: biochemical.

The target of assay [3] is T2, T. gondii DHFR (tgDHFR) (Toxoplasma gondii, UniProt Q07422).
T2 sequence (Q07422 1-610): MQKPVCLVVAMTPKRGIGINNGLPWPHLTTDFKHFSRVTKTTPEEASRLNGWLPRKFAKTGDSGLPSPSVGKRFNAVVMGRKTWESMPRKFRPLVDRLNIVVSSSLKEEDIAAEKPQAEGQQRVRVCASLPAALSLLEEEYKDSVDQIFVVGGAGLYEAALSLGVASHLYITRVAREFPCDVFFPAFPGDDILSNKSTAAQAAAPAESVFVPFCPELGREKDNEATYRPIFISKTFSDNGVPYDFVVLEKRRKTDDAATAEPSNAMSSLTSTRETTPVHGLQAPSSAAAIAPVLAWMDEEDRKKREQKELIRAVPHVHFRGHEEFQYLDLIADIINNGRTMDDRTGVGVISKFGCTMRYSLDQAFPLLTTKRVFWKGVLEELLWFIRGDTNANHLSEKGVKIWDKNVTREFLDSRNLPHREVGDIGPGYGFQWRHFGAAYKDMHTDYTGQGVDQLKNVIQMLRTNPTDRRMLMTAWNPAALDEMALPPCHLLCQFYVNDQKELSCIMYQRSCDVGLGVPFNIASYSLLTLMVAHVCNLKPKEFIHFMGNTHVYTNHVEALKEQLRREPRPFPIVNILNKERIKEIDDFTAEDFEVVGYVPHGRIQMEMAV
The assay can be described thus: biochemical. Particulars: Table 16; for Average DHFR selectivity (h/tg): hDHFR IC50/tgDHFR IC50; for IC50: pIC50 = -log10 IC50, at least three replicates, read-out: tgDHFR pIC50-DHFR primary assay (converted).

Where [4] appears, read: Table 17, pIC50 = -log10 IC50, at least three replicates, read-out: hDHFR pIC50-DHFR primary assay (converted).
Setting [5] is: Table 17, pIC50 = -log10 IC50, at least three replicates, read-out: tcDHFR pIC50-DHFR primary assay (converted).
Setting [6] is: Table 16, pIC50 = -log10 IC50, at least three replicates, read-out: hDHFR pIC50-DHFR primary assay (converted).

Read-outs that look alike come from different tables or passages of the source.

T. cruzi DHFR (tcDHFR), sequence (Q27793 whole entry): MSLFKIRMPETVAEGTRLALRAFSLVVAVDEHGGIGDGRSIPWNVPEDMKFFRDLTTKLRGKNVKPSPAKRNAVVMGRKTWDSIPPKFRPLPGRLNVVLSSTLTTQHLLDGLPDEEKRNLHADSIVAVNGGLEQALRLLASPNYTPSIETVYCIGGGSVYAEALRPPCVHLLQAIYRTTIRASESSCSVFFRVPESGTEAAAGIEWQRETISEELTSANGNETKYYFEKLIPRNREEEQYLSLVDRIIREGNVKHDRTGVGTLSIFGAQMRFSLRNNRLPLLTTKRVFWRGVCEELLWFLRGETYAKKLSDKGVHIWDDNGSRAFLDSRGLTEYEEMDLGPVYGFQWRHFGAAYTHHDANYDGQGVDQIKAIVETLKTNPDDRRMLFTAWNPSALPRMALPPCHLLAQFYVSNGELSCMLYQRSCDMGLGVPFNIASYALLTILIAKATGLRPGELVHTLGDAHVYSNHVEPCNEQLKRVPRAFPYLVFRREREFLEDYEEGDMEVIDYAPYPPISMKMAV

Take `Cc1ccc(N2CCN(c3cnc(N)nc3N)CC2)cc1` [Compound 8, 5-(4-(p-tolyl)piperazin-1-yl)pyrimidine-2,4-diamine]: in assay [1], the IC50 is 0.0182 µM.
In turn, `COc1cccc(N2CCN(c3cnc(N)nc3N)CC2)c1` [Compound 9, 5-(4-(3-methoxyphenyl)piperazin-1-yl)pyrimidine-2,4-diamine] had an IC50 in assay [1] of 0.0288 µM.
Turning to `Nc1ncc(N2CCN(c3cccc(-c4ccncn4)c3)CC2)c(N)n1` [Compound 102, 5-(4-(3-(pyrimidin-4-yl)phenyl)piperazin-1-yl)pyrimidine-2,4-diamine], the IC50 in assay [2] (setting [4]) was 1.66 µM; in assay [1], 0.0158 µM.
In the same order, the values of `Nc1ncc(N2CCN(c3ccc(C(F)(F)F)nc3)CC2)c(N)n1` [Compound 112] are 2.04 µM and 0.00562 µM.
For the compound `COc1ccc(N2CCN(c3cnc(N)nc3N)CC2)cc1` [Compound 114, 5-(4-(4-methoxyphenyl)piperazin-1-yl)pyrimidine-2,4-diamine], the IC50 in assay [2] (setting [4]) was 0.813 µM; in assay [1], 0.00562 µM.
Regarding `Nc1ncc(N2CCN(c3ccc(C(F)(F)F)cc3)CC2)c(N)n1` [Compound 115, 5-(4-(4-(trifluoromethyl)phenyl)piperazin-1-yl)pyrimidine-2,4-diamine], the IC50 in assay [2] was 0.813 µM; in assay [1], 0.00617 µM.
As for `Nc1ncc(N2CCN(c3ccc(F)cc3)CC2)c(N)n1` [Compound 116, 5-(4-(4-fluorophenyl)piperazin-1-yl)pyrimidine-2,4-diamine], the figures for the IC50 in assay [2] (setting [4]) and in assay [1] were 5.01 µM and 0.0501 µM, respectively.
With `Nc1ncc(N2CCN(c3ccc(C(F)(F)F)cn3)CC2)c(N)n1` [Compound 140, 5-(4-(5-(trifluoromethyl)pyridin-2-yl)piperazin-1-yl)pyrimidine-2,4-diamine], the IC50 in assay [2] (setting [4]) is 0.617 µM; in assay [1] (setting [5]) it was 0.007 µM. Moreover, in assay [1] (Table 17), the “Average DHFR selectivity (h/tc)” value is 90.29.
For `Nc1ncc(N2CCN(c3ccc(Cl)nc3)CC2)c(N)n1` [Compound 141, 5-(4-(6-chloropyridin-3-yl)piperazin-1-yl)pyrimidine-2,4-diamine] the same measures were 0.417 µM, 0.00631 µM and 67.2.
For `Nc1ncc(N2CCN(c3cnc(C(F)(F)F)nc3)CC2)c(N)n1` [Compound 142, 5-(4-(2-(trifluoromethyl)pyrimidin-5-yl)piperazin-1-yl)pyrimidine-2,4-diamine] the same measures were 7.63 µM, 0.0385 µM and 206.5.
For `Nc1ncc(N2CCN(c3ccc(F)c(Cl)c3)CC2)c(N)n1` [Compound 143, 5-(4-(3-chloro-4-fluorophenyl)piperazin-1-yl)pyrimidine-2,4-diamine] the same measures were 0.684 µM, 0.0166 µM and 41.735.
As to `Nc1ncc(N2CCN(c3cc(Cl)ccc3F)CC2)c(N)n1` [Compound 144, 5-(4-(5-chloro-2-fluorophenyl)piperazin-1-yl)pyrimidine-2,4-diamine], the IC50 was 8.61 µM in assay [2] (setting [4]) and 0.17 µM in assay [1] (setting [5]). Besides, the “Average DHFR selectivity (h/tc)” value in assay [1] (Table 17) is 52.69.
For `Nc1ncc(N2CCN(c3cncc(Br)c3)CC2)c(N)n1` [Compound 145, 5-(4-(5-bromopyridin-3-yl)piperazin-1-yl)pyrimidine-2,4-diamine] the same measures were 1.17 µM, 0.0216 µM and 56.7.
On to `Cc1ccc(N2CCN(c3cnc(N)nc3N)CC2)cn1` [Compound 146, 5-(4-(6-methylpyridin-3-yl)piperazin-1-yl)pyrimidine-2,4-diamine], for which the IC50 in assay [2] (setting [4]) is 7.41 µM; in assay [1] (setting [5]), 0.0335 µM. Moreover, in assay [1] (Table 17), the “Average DHFR selectivity (h/tc)” value amounted to 222.395.
For `Nc1ncc(N2CCN(c3ccnc(Cl)c3)CC2)c(N)n1` [Compound 147, 5-(4-(2-chloropyridin-4-yl)piperazin-1-yl)pyrimidine-2,4-diamine] the same measures were 0.18 µM, 0.00741 µM and 24.92.
For `Nc1ncc(N2CCN(c3cc(Cl)ccn3)CC2)c(N)n1` [Compound 148, 5-(4-(4-chloropyridin-2-yl)piperazin-1-yl)pyrimidine-2,4-diamine] the same measures were 2.19 µM, 0.0229 µM and 94.81.
Take `Nc1ncc(N2CCN(c3ccc(Cl)cn3)CC2)c(N)n1` [Compound 149, 5-(4-(5-chloropyridin-2-yl)piperazin-1-yl)pyrimidine-2,4-diamine]: the values for the IC50 in assay [2] (setting [4]) and in assay [1] (setting [5]) were 1.97 µM and 0.0162 µM, respectively. In assay [1] (Table 17), the “Average DHFR selectivity (h/tc)” value was 122.69.
Take `COc1ncc(-c2cc(N3CCN(c4cnc(N)nc4N)CC3)ccc2F)cn1` [Compound 160]: the IC50 in assay [2] (setting [6]) is 0.389 µM. Further, in assay [3], the “Average DHFR selectivity (h/tg)” value is reported as 156.11 and the IC50 is 0.00251 µM.
Regarding `COc1ncc(-c2cc(F)cc(N3CCN(c4cnc(N)nc4N)CC3)c2)cn1` [Compound 161], the IC50 in assay [2] (setting [6]) was 0.138 µM. Further, in assay [3], the “Average DHFR selectivity (h/tg)” value is reported as 51.27 and the IC50 was 0.00269 µM.
For the compound `COc1ncc(-c2cncc(N3CCN(c4cnc(N)nc4N)CC3)c2)cn1` [Compound 162], the IC50 in assay [2] (setting [6]) was 1.45 µM. Moreover, in assay [3], the “Average DHFR selectivity (h/tg)” value was 117.08 and the IC50 is 0.0123 µM.
`COc1ncc(-c2cc(N3CCN(c4cnc(N)nc4N)CC3)ccn2)cn1` [Compound 163]: the IC50 in assay [2] (setting [6]) is 0.155 µM; in assay [3], 0.00676 µM. Besides, the “Average DHFR selectivity (h/tg)” value in assay [3] was found to be 23.00.
In the same order, the values of `COc1ncc(-c2ccc(F)c(N3CCN(c4cnc(N)nc4N)CC3)c2)cn1` [Compound 164] are 0.562 µM, 0.00871 µM and 65.26.
With `COc1ncc(-c2ccnc(N3CCN(c4cnc(N)nc4N)CC3)c2)cn1` [Compound 165], the IC50 in assay [2] (setting [6]) is 0.355 µM. Also, in assay [3], the “Average DHFR selectivity (h/tg)” value is 82.03 and the IC50 was 0.00437 µM.
`C[C@H]1CN(c2cnc(N)nc2N)CCN1c1cccc(C2CCOCC2)c1` [Compound 174]: the IC50 in assay [2] (setting [6]) is 0.955 µM. For the same compound, in assay [3], the “Average DHFR selectivity (h/tg)” value is 30.69 and the IC50 is 0.0316 µM.
In the same order, the values of `C[C@@H]1CN(c2cnc(N)nc2N)CCN1c1cccc(C2CCOCC2)c1` [Compound 176] are 0.107 µM, 47.03 and 0.00229 µM.
In the same order, the values of `Nc1ncc(N2CCN(c3cccc(-c4cnc(O)nc4)n3)CC2)c(N)n1` [Compound 181, 5-(6-(4-(2,4-diaminopyrimidin-5-yl)piperazin-1-yl)pyridin-2-yl)pyrimidin-2-ol] are 0.0166 µM, 13.94 and 0.0012 µM.
In the same order, the values of `COc1ncc(-c2cccc(N3CC=C(c4cnc(N)nc4N)CC3)c2)cn1` [Compound 182, 5-(1-(3-(2-methoxypyrimidin-5-yl)phenyl)-1,2,3,6-tetrahydropyridin-4-yl)pyrimidine-2,4-diamine] are 0.0776 µM, 37.84 and 0.00204 µM.
Take `C[C@H]1CN(c2cnc(N)nc2N)CCN1c1cccc(C2=CCOCC2)c1` [Compound 192, (S)-5-(4-(3-(3,6-dihydro-2H-pyran-4-yl)phenyI)-3-methylpiperazin-1-yl)pyrimidine-2,4-diamine]: in assay [2] (setting [6]), the IC50 is 0.479 µM. Besides, in assay [3], the “Average DHFR selectivity (h/tg)” value is 17.89 and the IC50 is 0.0275 µM.
In the same order, the values of `C[C@@H]1CN(c2cnc(N)nc2N)CCN1c1cccc(C2=CCOCC2)c1` [Compound 194, (R)-5-(4-(3-(3,6-dihydro-2H-pyran-4-yl)phenyl)-3-methylpiperazin-1-yl)pyrimidine-2,4-diamine] are 0.0331 µM, 18.10 and 0.00182 µM.
`CN(Cc1cnc2nc(N)nc(N)c2n1)c1ccc(C(=O)N[C@@H](CCC(=O)O)C(=O)O)cc1` [Methotrexate] gave an IC50 in assay [1] of 0.0011 µM.
On the same count and under the same terms, as for `CCc1nc(N)nc(N)c1-c1ccc(Cl)cc1` [pyrimethamine, reference compound], the figure is 1 µM.

For the origin of these results see US20200270233A1, “DHFR INHIBITORS, COMPOSITIONS, AND METHODS RELATED THERETO” (Vyera Pharmaceuticais LLC, priority 2017, published 2020).
